{"source": "patent US9427433B2", "about": "“Methods and compositions for enhancing fertility and/or inhibiting pregnancy failure and restoring glucose tolerance” (Queen's University at Kingston, priority 2011, dated 2016)", "type_in_all_cases": "in vivo, mouse", "key": {"[1]": {"test_system": "NZO mice fed a high fat diet", "assay": "Implantation rate and resorption, comparison of macrolides", "method": "For the comparative evaluation of other macrolide drugs to tacrolimus, mice starting at 7 weeks of age were maintained on the high fat diet for a total of 13 weeks of study period. Mice were entered into the experiments when determined to be glucose intolerant as described above. Methods of drug administration and other experimental methods were as described above.\nPeri-implantation (E4.5) and post-implantation (E6.5) pregnant and/or pseudopregnant (E4.5bid and E6.5bid) mouse uteri were prepared after mating respectively with fertile and/or vasectomized males as previously described (Herington et al. Endocrinol 2009 150: 4404-4413). The morning of vaginal plug detection was considered as gestational day 0.5 (E0.5 or Gd.0.5). An average number of twenty Concanavalin A(ConA)-coated sepharose beads (average size of 0.1 mm-diameter) (Sigma-Aldrich, Burlington, Ontario, Canada) was injected into the lumen of the left uterine horn of anesthetized animals between hours 13:00 and 16:00 on day 2.5 of pseudopregnancy according to the procedure described by Herington et al. (Endocrinol, 2009 150: 4404-4413). With the use of Ketamine/Xyalzine anesthesia and cardiac puncture, all animals were sacrificed at the age of 16-18 weeks between the morning hours 09:00-11:00. Pregnant and pseudopregnant mice were sacrificed in the morning of days 4.5 and 6.5 of their respective pregnancy. Blood samples were collected from all animals and were let stand for 1 hour at room temperature before isolation of the serum. Serum samples were stored at −80° C. until they were analyzed for their steroid hormones and lipid contents by appropriate laboratory procedures such as radio-immunoassay (RIA) all of which were conducted at the Department of Clinical Chemistry (Kingston General Hospital, Kingston, Ontario, Canada). Ovaries, oviducts and uteri were carefully dissected out of carcasses and were placed in ice-cold phosphate buffered saline (PBS)-containing petri dishes. Under a dissecting microscope, uteri were carefully isolated from their attached uterine tubes, trimmed of all mesenteric fat and were immediately weighed. The numbers of corpora lutea and implantation sites (viable and resorbed) were counted, respectively, from E4.5 and E6.5 pregnant mouse ovaries and uteri. For protein and RNA extraction, virgin uteri and segments of uterine horns containing inter-implantation sites of pregnant and pseudopregnant uteri were transected and snapped frozen in liquid nitrogen.\nExamination of external morphological features of uteri of pregnant mice, including counts of implantation sites and photography was performed using a computerized dissecting microscope (Leica Diagnostic Instruments, USA) and the image acquisition and analytic software (SPOT 2.2.0). Percentage of peri-implantation embryo loss was calculated as described by Bindali and Kaliwal (Ind. Health, 2002 40:191-197), using the formula: % Preimplantation loss=[Total number of corpora lutea−Total number of implantation]/Total number of corpora lutea. Immunohistochemical localization and assessment of microscopic morphological features of implantation and inter-implantation sites in normoglycemic and diabetic NOD mice were performed on methacarn (60% methanol, 30% chloroform and 10% acetic acid)-fixed specimens. […]"}, "[2]": {"test_system": "diabetic and prediabetic mice", "assay": "Body weight in diabetic and prediabetic NOD mice", "conditions": "throughout the study period; FIG. 19A", "method": "Fifty four NOD mice at the prediabetic and early diabetic stages were carefully selected to match the criteria of being 2 standard deviation heavier in body weight than their age-matched normoglycemic control mice and having blood glucose value of >14.9 mM/1 during the glucose tolerance test. The selected mice were 9 weeks old and were treated with 0.1 mg/kg q2d of tacrolimus (Prograf (5 mg/ml), Astellas) subcutaneously administered in 0.2 ml saline for three weeks after which animals were mated to males of the same strain (See FIG. 1). Vehicle (0.2 ml saline, s.q.) treated hyperglycemic NOD female mice were allowed two weeks in diabetes before they were mated to males of the same strain. Facial (mandibular) venous blood samples were collected from treated animals at 24 and 48 hours between injections and at pregnancy days 0.5, 2.5, 4.5, 6.5, 8.5, 10.5, 12.5, 14.5, 16.5 and 18.5 respectively following a standard procedure for facial bleed in mice (Golde et al Lab Anim (NY) 2005 34:39-43)."}, "[3]": {"test_system": "uterine cytokines (IFN-γ, TNFα, IL16, IL12 family and others)", "assay": "Cytokine multiplex profiling in uteri at peri-implantation", "text": "In all untreated or vehicle-treated diabetic mice, an aberrant over-expression of IFN-γ, TNFα and IL16 accounted for the immune-cytotoxicity related implantation failure in these mice."}}, "data": [{"compound": "C=CC[C@@H]1/C=C(\\C)C[C@H](C)C[C@H](OC)[C@H]2O[C@@](O)(C(=O)C(=O)N3CCCC[C@H]3C(=O)O[C@H](/C(C)=C/[C@@H]3CC[C@@H](O)[C@H](OC)C3)[C@H](C)[C@@H](O)CC1=O)[C@H](C)C[C@@H]2OC", "note": "[tacrolimus]", "values": [{"measurement": "fertility-enhancing effect compared with the other macrolides", "setting": "[1]; NZO mice, high fat diet", "value": "greater comparative effects"}, {"measurement": "embryonic and fetal absorption rate", "setting": "[1]; same treatments, vs vehicle, p<0.05", "value": "significantly reduced embryonic and fetal absorption rate"}, {"measurement": "implantation rate", "setting": "[1]; tacrolimus 0.05 and 0.1 mg/kg, pimecrolimus 0.1 mg/kg, sirolimus 0.1 mg/kg s.c. every other day for three weeks, vs vehicle", "value": "significantly improved implantation rate (p<0.05)"}, {"measurement": "body weight gain", "setting": "[2]", "value": "maintained normal body weight gain"}, {"measurement": "anti-inflammatory cytokines IL-1ra, IL10 and IL2 in uteri", "setting": "[3]; diabetes prone mice, FIG. 12", "value": "inhibition of some anti-inflammatory cytokines such as IL-1ra, IL10 and IL2"}, {"measurement": "cytokines involved in inflammation, T-cell cytotoxicity and blood coagulation", "setting": "[3]; peri-implantation, FIG. 8", "value": "pan-inhibition of cytokines involved in inflammation, T-cell cytotoxicity and blood coagulation"}, {"measurement": "uterine expression of MCP1, MCP5, MIG9, RANTES, SDF-1, KC", "setting": "[3]; peri-implantation, FIG. 9", "value": "significantly downregulated the uterine expression of six major IFN-γ-regulated inflammatory cytokines"}, {"measurement": "Th1-induced cytokines (IFN-γ, IL16, TNFα, IL12 family) in uteri", "setting": "[3]; short-term administration prior to mating, peri-implantation", "value": "significant inhibition of the vast majority of Th1-induced cytokines"}, {"measurement": "IL12 family cytokines in uteri", "setting": "[3]; time of implantation, FIG. 7F", "value": "downregulating members of IL12 family cytokines"}, {"measurement": "IL5, IL7 and IL13 expression in uteri", "setting": "[3]; time of implantation, FIG. 11", "value": "restored normalized levels of IL5, IL7 and IL13 expression"}]}]}
